The nature of this series: activity coefficient (dimensionless); of the first substance listed, at infinite dilution; xn = mol fraction of the nth substance listed. The settings on record: 101 kPa, Liquid, Chromatography, x1 = 0.

± gives the expanded uncertainty stated by the source.

As for `CCCC=O` [butanal] + COCC[N+]1(C)CCCCC1.O=S(=O)([N-]S(=O)(=O)C(F)(F)F)C(F)(F)F, the activity coefficient is, setting by setting: (318.15 K) 0.779 ± 0.051; (328.15 K) 0.791 ± 0.051; (338.15 K) 0.805 ± 0.052; (348.15 K) 0.817 ± 0.053; (358.15 K) 0.828 ± 0.053; (368.15 K) 0.84 ± 0.054.
Turning to `C1CCCCCC1` [cycloheptane] + COCC[N+]1(C)CCCCC1.O=S(=O)([N-]S(=O)(=O)C(F)(F)F)C(F)(F)F, the activity coefficient reads like this: (318.15 K) 13.3 ± 0.6; (328.15 K) 12.5 ± 0.6; (338.15 K) 11.7 ± 0.5; (348.15 K) 10.9 ± 0.5; (358.15 K) 10.2 ± 0.5; (368.15 K) 9.64 ± 0.44.
In the case of `C1CCCCC1` [cyclohexane] + COCC[N+]1(C)CCCCC1.O=S(=O)([N-]S(=O)(=O)C(F)(F)F)C(F)(F)F, the activity coefficient reads like this: (318.15 K) 9.72 ± 0.45; (328.15 K) 9.23 ± 0.42; (338.15 K) 8.71 ± 0.4; (348.15 K) 8.24 ± 0.38; (358.15 K) 7.81 ± 0.36; (368.15 K) 7.48 ± 0.34.
In the case of `C1=CCCCC1` [cyclohexene] + COCC[N+]1(C)CCCCC1.O=S(=O)([N-]S(=O)(=O)C(F)(F)F)C(F)(F)F, the activity coefficient (318.15 K) was 5.41 ± 0.37; the activity coefficient (328.15 K) is 5.21 ± 0.36; the activity coefficient (338.15 K) amounted to 5 ± 0.34; the activity coefficient (348.15 K) came out at 4.83 ± 0.33; the activity coefficient (358.15 K) is 4.67 ± 0.32; the activity coefficient (368.15 K) stood at 4.53 ± 0.31.
As for `C1CCCCCCC1` [cyclooctane] + COCC[N+]1(C)CCCCC1.O=S(=O)([N-]S(=O)(=O)C(F)(F)F)C(F)(F)F, the activity coefficient runs as follows: (318.15 K) 18 ± 1.2; (328.15 K) 16.6 ± 1.1; (338.15 K) 15.4 ± 1.1; (348.15 K) 14.3 ± 1; (358.15 K) 13.2 ± 0.9; (368.15 K) 12.4 ± 0.8.
As for `C1CCCC1` [cyclopentane] + COCC[N+]1(C)CCCCC1.O=S(=O)([N-]S(=O)(=O)C(F)(F)F)C(F)(F)F, the activity coefficient is 6.73 ± 0.31 (318.15 K); 6.42 ± 0.29 (328.15 K); 6.13 ± 0.28 (338.15 K); 5.86 ± 0.27 (348.15 K); 5.63 ± 0.26 (358.15 K); 5.45 ± 0.25 (368.15 K).
Consider `CCCCCCCCCC` [decane] + COCC[N+]1(C)CCCCC1.O=S(=O)([N-]S(=O)(=O)C(F)(F)F)C(F)(F)F, for which the activity coefficient by setting is: (318.15 K) 73.9 ± 3.5; (328.15 K) 66.5 ± 3.1; (338.15 K) 59.5 ± 2.8; (348.15 K) 53.7 ± 2.5; (358.15 K) 48.8 ± 2.3; (368.15 K) 45 ± 2.1.
For the molecule `CCOCC` [diethyl ether] + COCC[N+]1(C)CCCCC1.O=S(=O)([N-]S(=O)(=O)C(F)(F)F)C(F)(F)F, the activity coefficient reads like this: (318.15 K) 2.6 ± 0.18; (328.15 K) 2.59 ± 0.18; (338.15 K) 2.58 ± 0.18; (348.15 K) 2.58 ± 0.18; (358.15 K) 2.57 ± 0.17; (368.15 K) 2.56 ± 0.17.
Turning to `CC(C)OC(C)C` [diisopropyl ether] + COCC[N+]1(C)CCCCC1.O=S(=O)([N-]S(=O)(=O)C(F)(F)F)C(F)(F)F, the activity coefficient runs as follows: (318.15 K) 6.13 ± 0.42; (328.15 K) 6.03 ± 0.41; (338.15 K) 5.94 ± 0.4; (348.15 K) 5.84 ± 0.4; (358.15 K) 5.76 ± 0.39; (368.15 K) 5.69 ± 0.39.
On to `CCCOCCC` [dipropyl ether] + COCC[N+]1(C)CCCCC1.O=S(=O)([N-]S(=O)(=O)C(F)(F)F)C(F)(F)F, for which the activity coefficient was determined as 6.45 ± 0.44 (318.15 K); 6.28 ± 0.43 (328.15 K); 6.13 ± 0.42 (338.15 K); 5.98 ± 0.41 (348.15 K); 5.86 ± 0.4 (358.15 K); 5.75 ± 0.39 (368.15 K).
`CCO` [ethanol] + COCC[N+]1(C)CCCCC1.O=S(=O)([N-]S(=O)(=O)C(F)(F)F)C(F)(F)F: the activity coefficient (318.15 K) was 1.73 ± 0.12; the activity coefficient (328.15 K) came to 1.58 ± 0.1; the activity coefficient (338.15 K) turned out to be 1.45 ± 0.1; the activity coefficient (348.15 K) was determined as 1.33 ± 0.09; the activity coefficient (358.15 K) came to 1.24 ± 0.08; the activity coefficient (368.15 K) came out at 1.16 ± 0.07.
Regarding `CCOC(C)=O` [ethyl acetate] + COCC[N+]1(C)CCCCC1.O=S(=O)([N-]S(=O)(=O)C(F)(F)F)C(F)(F)F, the activity coefficient runs as follows: (318.15 K) 0.916 ± 0.058; (328.15 K) 0.932 ± 0.059; (338.15 K) 0.948 ± 0.06; (348.15 K) 0.963 ± 0.061; (358.15 K) 0.975 ± 0.061; (368.15 K) 0.989 ± 0.062.
Consider `CCc1ccccc1` [ethylbenzene] + COCC[N+]1(C)CCCCC1.O=S(=O)([N-]S(=O)(=O)C(F)(F)F)C(F)(F)F, for which the activity coefficient reads like this: (318.15 K) 1.92 ± 0.13; (328.15 K) 1.93 ± 0.13; (338.15 K) 1.93 ± 0.13; (348.15 K) 1.94 ± 0.13; (358.15 K) 1.94 ± 0.13; (368.15 K) 1.95 ± 0.13.
Turning to `CCCCCCC` [heptane] + COCC[N+]1(C)CCCCC1.O=S(=O)([N-]S(=O)(=O)C(F)(F)F)C(F)(F)F, the activity coefficient runs as follows: (318.15 K) 24.5 ± 1.1; (328.15 K) 22.9 ± 1.1; (338.15 K) 21.2 ± 1; (348.15 K) 19.8 ± 0.9; (358.15 K) 18.4 ± 0.9; (368.15 K) 17.5 ± 0.8.
Take `C=CCCCC` [hex-1-ene] + COCC[N+]1(C)CCCCC1.O=S(=O)([N-]S(=O)(=O)C(F)(F)F)C(F)(F)F: the activity coefficient by setting is: (318.15 K) 8.78 ± 0.6; (328.15 K) 8.38 ± 0.57; (338.15 K) 8.05 ± 0.55; (348.15 K) 7.69 ± 0.52; (358.15 K) 7.45 ± 0.51; (368.15 K) 7.22 ± 0.49.
With `CCCCCC` [hexane] + COCC[N+]1(C)CCCCC1.O=S(=O)([N-]S(=O)(=O)C(F)(F)F)C(F)(F)F, the activity coefficient reads like this: (318.15 K) 16.9 ± 0.8; (328.15 K) 16 ± 0.7; (338.15 K) 15.1 ± 0.7; (348.15 K) 14.2 ± 0.7; (358.15 K) 13.5 ± 0.6; (368.15 K) 13 ± 0.6.
As for `CO` [methanol] + COCC[N+]1(C)CCCCC1.O=S(=O)([N-]S(=O)(=O)C(F)(F)F)C(F)(F)F, the activity coefficient (318.15 K) was 1.37 ± 0.09; the activity coefficient (328.15 K) was found to be 1.26 ± 0.08; the activity coefficient (338.15 K) amounted to 1.17 ± 0.07; the activity coefficient (348.15 K) came out at 1.08 ± 0.07; the activity coefficient (358.15 K) amounted to 1 ± 0.06; the activity coefficient (368.15 K) stood at 0.942 ± 0.059.
Turning to `CCCC(=O)OC` [methyl butanoate] + COCC[N+]1(C)CCCCC1.O=S(=O)([N-]S(=O)(=O)C(F)(F)F)C(F)(F)F, the activity coefficient (318.15 K) came to 1.22 ± 0.08; the activity coefficient (328.15 K) worked out at 1.23 ± 0.08; the activity coefficient (338.15 K) was determined as 1.24 ± 0.08; the activity coefficient (348.15 K) amounted to 1.25 ± 0.08; the activity coefficient (358.15 K) stood at 1.26 ± 0.08; the activity coefficient (368.15 K) is 1.27 ± 0.08.
Take `COC(C)=O` [methyl ethanoate] + COCC[N+]1(C)CCCCC1.O=S(=O)([N-]S(=O)(=O)C(F)(F)F)C(F)(F)F: the activity coefficient reads like this: (318.15 K) 0.7 ± 0.047; (328.15 K) 0.714 ± 0.048; (338.15 K) 0.726 ± 0.048; (348.15 K) 0.74 ± 0.049; (358.15 K) 0.751 ± 0.049; (368.15 K) 0.763 ± 0.05.
Regarding `CCC(=O)OC` [methyl propanoate] + COCC[N+]1(C)CCCCC1.O=S(=O)([N-]S(=O)(=O)C(F)(F)F)C(F)(F)F, the activity coefficient by setting is: (318.15 K) 0.888 ± 0.057; (328.15 K) 0.904 ± 0.057; (338.15 K) 0.92 ± 0.058; (348.15 K) 0.936 ± 0.059; (358.15 K) 0.95 ± 0.06; (368.15 K) 0.966 ± 0.061.
As to `CC1CCCCC1` [methylcyclohexane] + COCC[N+]1(C)CCCCC1.O=S(=O)([N-]S(=O)(=O)C(F)(F)F)C(F)(F)F, the activity coefficient is 13.5 ± 0.6 (318.15 K); 12.7 ± 0.6 (328.15 K); 12 ± 0.6 (338.15 K); 11.2 ± 0.5 (348.15 K); 10.6 ± 0.5 (358.15 K); 10.2 ± 0.5 (368.15 K).
Regarding `CCCCCCCCC` [nonane] + COCC[N+]1(C)CCCCC1.O=S(=O)([N-]S(=O)(=O)C(F)(F)F)C(F)(F)F, the activity coefficient came out at 50.8 ± 2.4 (318.15 K); 46.3 ± 2.2 (328.15 K); 42 ± 2 (338.15 K); 38.2 ± 1.8 (348.15 K); 35.1 ± 1.6 (358.15 K); 32.4 ± 1.5 (368.15 K).
On to `C=CCCCCCC` [oct-1-ene] + COCC[N+]1(C)CCCCC1.O=S(=O)([N-]S(=O)(=O)C(F)(F)F)C(F)(F)F, for which the activity coefficient reads like this: (318.15 K) 18.1 ± 1.2; (328.15 K) 17 ± 1.2; (338.15 K) 16.1 ± 1.1; (348.15 K) 15.1 ± 1; (358.15 K) 14.4 ± 1; (368.15 K) 13.8 ± 0.9.
As for `CCCCCCCC` [octane] + COCC[N+]1(C)CCCCC1.O=S(=O)([N-]S(=O)(=O)C(F)(F)F)C(F)(F)F, the activity coefficient by setting is: (318.15 K) 35.4 ± 1.6; (328.15 K) 32.6 ± 1.5; (338.15 K) 30 ± 1.4; (348.15 K) 27.6 ± 1.3; (358.15 K) 25.6 ± 1.2; (368.15 K) 23.8 ± 1.1.
Consider `CCCC(C)=O` [pentan-2-one] + COCC[N+]1(C)CCCCC1.O=S(=O)([N-]S(=O)(=O)C(F)(F)F)C(F)(F)F, for which the activity coefficient amounted to 0.786 ± 0.051 (318.15 K); 0.801 ± 0.052 (328.15 K); 0.813 ± 0.053 (338.15 K); 0.825 ± 0.053 (348.15 K); 0.837 ± 0.054 (358.15 K); 0.849 ± 0.054 (368.15 K).

The record behind these values is the NIST ThermoML archive (doi:10.1016/j.jct.2012.01.019).
